Assay results as given in patent US20260042731A1, “(2,4-DICHLOROPHENOXY)ACETIC ACID ANALOGS” (CORTEVA AGRISCIENCE LLC, priority 2022, published 2026).
Read-outs that look alike come from different tables or passages of the source.

Experiments:
[1] = tested on: Ambrosia artemisiifolia (AMBEL), common ragweed; test: Postemergence herbicide evaluation, growth of Ambrosia artemisiifolia (AMBEL); format: in vivo; settings: Ambrosia artemisiifolia, post-emergence, read-out: AVE. AMBEL
[2] = tested on: Chenopodium album (CHEAL), common lambsquarters; test: Postemergence herbicide evaluation, growth of Chenopodium album (CHEAL); format: in vivo; settings: Chenopodium album, post-emergence, read-out: Ave. CHEAL
[3] = tested on: glyphosate resistant Conyza canadensis (L.) (ERICA), horseweed; test: Postemergence herbicide evaluation, growth of Conyza canadensis (ERICA); format: in vivo; settings: Erigeron canadensis, post-emergence, read-out: Ave. ERICA
[4] = tested on: weeds (ABUTH, AMATA, AMBEL, CHEAL, ERICA); test: Postemergence herbicide evaluation, overall average % weed control across ABUTH, AMATA, AMBEL, CHEAL, ERICA; format: in vivo; settings: post-emergence, read-out: Overall Ave % Weed Control
[5] = tested on: Amaranthus rudis (AMATA), tall water hemp; test: Postemergence herbicide evaluation, growth of Amaranthus rudis (AMATA); format: in vivo; settings: Amaranthus tuberculatus, post-emergence, read-out: Ave. AMATA
[6] = tested on: Abutilon theophrasti (ABUTH), velvetleaf; test: Postemergence herbicide evaluation, growth of Abutilon theophrasti (ABUTH); format: in vivo; settings: Abutilon theophrasti, post-emergence, read-out: AVE. ABUTH
[7] = Volatility of compounds measured by thermogravimetric analysis (TGA); format: physicochemical
[8] = 168 h, 280 g ae/ha, 7 DAA, percent reduction in plant size relative to untreated control
[9] = 168 h, 560 g ae/ha, 7 DAA, percent reduction in plant size relative to untreated control
[10] = 336 h, 280 g ae/ha, 14 DAA, percent reduction in plant size relative to untreated control
[11] = 336 h, 560 g ae/ha, 14 DAA, percent reduction in plant size relative to untreated control
[12] = 504 h, 280 g ae/ha, 21 DAA, percent reduction in plant size relative to untreated control
[13] = 504 h, 560 g ae/ha, 21 DAA, percent reduction in plant size relative to untreated control
[14] = 168 h, 280 g ae/ha, 7 DAA, average over the five weeds
[15] = 168 h, 560 g ae/ha, 7 DAA, average over the five weeds
[16] = 336 h, 280 g ae/ha, 14 DAA, average over the five weeds
[17] = 336 h, 560 g ae/ha, 14 DAA, average over the five weeds
[18] = 504 h, 280 g ae/ha, 21 DAA, average over the five weeds
[19] = 504 h, 560 g ae/ha, 21 DAA, average over the five weeds

O=C(COc1ccc(Cl)cc1Cl)ONC(=O)c1ccc(C(=O)NOC(=O)COc2ccc(Cl)cc2Cl)cc1 [Compound B4]
pest or weed control at 280 g/ha [1, 8]: 58%
pest or weed control at 560 g/ha [1, 9]: 65%
pest or weed control at 280 g/ha [1, 10]: 88%
pest or weed control at 560 g/ha [1, 11]: 84%
pest or weed control at 280 g/ha [1, 12]: 95%
pest or weed control at 560 g/ha [1, 13]: 87%
pest or weed control at 280 g/ha [2, 8]: 63%
pest or weed control at 560 g/ha [2, 9]: 63%
pest or weed control at 280 g/ha [2, 10]: 70%
pest or weed control at 560 g/ha [2, 11]: 68%
pest or weed control at 280 g/ha [2, 12]: 75%
pest or weed control at 560 g/ha [2, 13]: 65%
pest or weed control at 280 g/ha [3, 8]: 68%
pest or weed control at 560 g/ha [3, 9]: 68%
pest or weed control at 280 g/ha [3, 10]: 85%
pest or weed control at 560 g/ha [3, 11]: 95%
pest or weed control at 280 g/ha [3, 12]: 99%
pest or weed control at 560 g/ha [3, 13]: 100%
pest or weed control at 280 g/ha [4, 14]: 65%
pest or weed control at 560 g/ha [4, 15]: 69%
pest or weed control at 280 g/ha [4, 16]: 78%
pest or weed control at 560 g/ha [4, 17]: 79%
pest or weed control at 280 g/ha [4, 18]: 83%
pest or weed control at 560 g/ha [4, 19]: 81%
pest or weed control at 280 g/ha [5, 8]: 68%
pest or weed control at 560 g/ha [5, 9]: 70%
pest or weed control at 280 g/ha [5, 10]: 68%
pest or weed control at 560 g/ha [5, 11]: 78%
pest or weed control at 280 g/ha [5, 12]: 65%
pest or weed control at 560 g/ha [5, 13]: 68%
pest or weed control at 280 g/ha [6, 8]: 70%
pest or weed control at 560 g/ha [6, 9]: 80%
pest or weed control at 280 g/ha [6, 10]: 78%
pest or weed control at 560 g/ha [6, 11]: 73%
pest or weed control at 280 g/ha [6, 12]: 83%
pest or weed control at 560 g/ha [6, 13]: 84%
TGA Data (rate of weight loss, volatility) [7]: 0.3 µg/min

N#C/C(=N\OC(=O)COc1ccc(Cl)cc1Cl)c1ccccc1 [Compound A6, N-(2-(2,4-Dichlorophenoxy)acetoxy)benzimidoyl cyanide]
pest or weed control at 280 g/ha ([1]; 168 h): 68%
pest or weed control at 560 g/ha ([1]; 168 h): 70%
pest or weed control at 280 g/ha ([1]; 336 h): 93%
pest or weed control at 560 g/ha ([1]; 336 h): 95%
pest or weed control at 280 g/ha ([1]; 504 h): 98%
pest or weed control at 560 g/ha ([1]; 504 h): 100%
pest or weed control at 280 g/ha ([2]; 168 h): 68%
pest or weed control at 560 g/ha ([2]; 168 h): 68%
pest or weed control at 280 g/ha ([2]; 336 h): 83%
pest or weed control at 560 g/ha ([2]; 336 h): 78%
pest or weed control at 280 g/ha ([2]; 504 h): 94%
pest or weed control at 560 g/ha ([2]; 504 h): 73%
pest or weed control at 280 g/ha ([3]; 168 h): 65%
pest or weed control at 560 g/ha ([3]; 168 h): 73%
pest or weed control at 280 g/ha ([3]; 336 h): 88%
pest or weed control at 560 g/ha ([3]; 336 h): 88%
pest or weed control at 280 g/ha ([3]; 504 h): 98%
pest or weed control at 560 g/ha ([3]; 504 h): 98%
pest or weed control at 280 g/ha ([4]; 168 h): 72%
pest or weed control at 560 g/ha ([4]; 168 h): 75%
pest or weed control at 280 g/ha ([4]; 336 h): 84%
pest or weed control at 560 g/ha ([4]; 336 h): 84%
pest or weed control at 280 g/ha ([4]; 504 h): 88%
pest or weed control at 560 g/ha ([4]; 504 h): 89%
pest or weed control at 280 g/ha ([5]; 168 h): 80%
pest or weed control at 560 g/ha ([5]; 168 h): 75%
pest or weed control at 280 g/ha ([5]; 336 h): 83%
pest or weed control at 560 g/ha ([5]; 336 h): 78%
pest or weed control at 280 g/ha ([5]; 504 h): 73%
pest or weed control at 560 g/ha ([5]; 504 h): 81%
pest or weed control at 280 g/ha ([6]; 168 h): 78%
pest or weed control at 560 g/ha ([6]; 168 h): 90%
pest or weed control at 280 g/ha ([6]; 336 h): 75%
pest or weed control at 560 g/ha ([6]; 336 h): 85%
pest or weed control at 280 g/ha ([6]; 504 h): 80%
pest or weed control at 560 g/ha ([6]; 504 h): 94%
TGA Data (rate of weight loss, volatility) [7]: 7.2 µg/min

Cc1cc(OC(=O)COc2ccc(Cl)cc2Cl)n(C)n1 [Compound E6, 1,3-Dimethyl-1H-pyrazol-5-yl 2-(2,4-dichlorophenoxy)acetate]
pest or weed control at 280 g/ha [1, 8]: 65%
pest or weed control at 560 g/ha [1, 9]: 73%
pest or weed control at 280 g/ha [1, 10]: 80%
pest or weed control at 560 g/ha [1, 11]: 88%
pest or weed control at 280 g/ha [1, 12]: 93%
pest or weed control at 560 g/ha [1, 13]: 96%
pest or weed control at 280 g/ha [2, 8]: 63%
pest or weed control at 560 g/ha [2, 9]: 70%
pest or weed control at 280 g/ha [2, 10]: 65%
pest or weed control at 560 g/ha [2, 11]: 85%
pest or weed control at 280 g/ha [2, 12]: 58%
pest or weed control at 560 g/ha [2, 13]: 90%
pest or weed control at 280 g/ha [3, 8]: 63%
pest or weed control at 560 g/ha [3, 9]: 65%
pest or weed control at 280 g/ha [3, 10]: 83%
pest or weed control at 560 g/ha [3, 11]: 83%
pest or weed control at 280 g/ha [3, 12]: 96%
pest or weed control at 560 g/ha [3, 13]: 95%
pest or weed control at 280 g/ha [4, 14]: 69%
pest or weed control at 560 g/ha [4, 15]: 73%
pest or weed control at 280 g/ha [4, 16]: 79%
pest or weed control at 560 g/ha [4, 17]: 86%
pest or weed control at 280 g/ha [4, 18]: 82%
pest or weed control at 560 g/ha [4, 19]: 90%
pest or weed control at 280 g/ha [5, 8]: 70%
pest or weed control at 560 g/ha [5, 9]: 75%
pest or weed control at 280 g/ha [5, 10]: 82%
pest or weed control at 560 g/ha [5, 11]: 80%
pest or weed control at 280 g/ha [5, 12]: 70%
pest or weed control at 560 g/ha [5, 13]: 77%
pest or weed control at 280 g/ha [6, 8]: 83%
pest or weed control at 560 g/ha [6, 9]: 83%
pest or weed control at 280 g/ha [6, 10]: 88%
pest or weed control at 560 g/ha [6, 11]: 93%
pest or weed control at 280 g/ha [6, 12]: 96%
pest or weed control at 560 g/ha [6, 13]: 94%
TGA Data (rate of weight loss, volatility) [7]: 1 µg/min
